Measured values: ChEMBL document CHEMBL5543173, “Discovery of a New Anti-Inflammatory Agent from Anemoside B4 Derivatives and Its Therapeutic Effect on Colitis by Targeting Pyruvate Carboxylase” (J Med Chem, 2024)
Calls of active or inactive are those of the source. The rule behind the calls is not given here.

What was measured:
THP-1 [1] = test: Anti-inflammatory activity in LPS-treated human THP-1 cells assessed as decrease in phosphorylated I-kappaB-alpha level at 10 uM pretreated for 1 hr followed by LPS treatment for 6 hrs by Western blot analysis; format: functional, cell-based; details: time 7.0 hrs
THP-1 [2] = test: Anti-inflammatory activity in human THP-1 cells assessed as decrease in LPS-induced IL-6 level pretreated for 1 hr followed by LPS treatment for 24 hrs by ELISA; format: functional, cell-based; details: dose 0.1-10 µM, time 25.0 hrs
Mus musculus [3] = test: Anti-colitis activity in ICR mouse model assessed as decrease in DSS-induced IL-6 level administered intragastrically treated for 8 days consecutively; format: functional, organism-based; details: dose 15-60 mg/kg, route ig, time 8.0 day
Mus musculus [4] = test: Anti-colitis activity in ICR mouse model assessed as decrease in DSS-induced I-kappaB-alpha degradation in colon tissue at 60 mg/kg, IG treated for 8 days consecutively in presence of DADA by Western blot analysis; format: functional, organism-based; details: time 8.0 day
[5] = MRT (0 to t) in ICR mouse at 15 mg/kg, IG measured for 12 hrs by LC-MS/MS analysis; format: ADME, organism-based; details: in vivo, po
Mus musculus [6] = test: Anti-colitis activity in ICR mouse model assessed as reversal of DSS-induced colon shortening administered intragastrically for 9 days consecutively; format: functional, organism-based; details: route ig, time 9.0 day
[7] = Stability in mouse liver microsomes assessed as half life at 10 uM preincubated for 5 mins followed by NADPH addition measured for 10 to 480 mins by LC-MS/MS analysis; format: ADME, Microsome; details: time 15-485 min
[8] = Cmax in Sprague-Dawley rat administered as hydroxypropyl-beta-cyclodextrin at 20 mg/kg, IG measured for 12 hrs by LC-MS/MS analysis; format: ADME, organism-based; details: in vivo, po
[9] = Stability in mouse liver microsomes assessed as intrinsic clearance at 10 uM preincubated for 5 mins followed by NADPH addition measured for 10 to 480 mins by LC-MS/MS analysis; format: ADME, Microsome; details: time 15-485 min
Mus musculus [10] = test: Anti-colitis activity in ICR mouse model assessed as decrease in DSS-induced DAI score at 15 to 60 mg/kg, IG treated for 8 days consecutively; format: functional, organism-based; details: dose 15-60 mg/kg, time 8.0 day
Mus musculus [11] = test: Anti-colitis activity in ICR mouse model assessed as decrease in DSS-induced inflammatory cell infiltration in colon tissue at 15 to 60 mg/kg, IG treated for 8 days consecutively by H and E staining based analysis; format: functional, organism-based; details: dose 15-60 mg/kg, time 8.0 day
THP-1 [12] = test: Anti-inflammatory activity in human THP-1 cells assessed as decrease in LPS-induced IL-1beta level at 1 to 10 uM pretreated for 1 hr followed by LPS/ATP treatment for 6 hrs by Western blot analysis; format: functional, cell-based; details: dose 1-10 µM, time 7.0 hrs
THP-1 [13] = test: Anti-inflammatory activity in human THP-1 cells assessed as decrease in LPS-induced IL-6 level at 10 uM pretreated for 1 hr followed by LPS treatment for 24 hrs in presence of DADA by ELISA; format: functional, cell-based; details: time 25.0 hrs
[14] = AUC (0 to t) in ICR mouse at 15 mg/kg, IG measured for 12 hrs by LC-MS/MS analysis; format: ADME, organism-based; details: in vivo, po
[15] = Toxicity in ICR mouse assessed as change in body weight at 300 mg/kg, IG measured for 9 days; format: organism-based; details: in vivo, po, 216 h, time 9 day
Mus musculus [16] = test: Anti-colitis activity in ICR mouse model assessed as increase in DSS-reduced pyruvate level at 60 mg/kg, IG treated for 8 days consecutively; format: functional, organism-based; details: time 8.0 day
[17] = Stability in mouse plasma assessed as half life at 10 uM preincubated for 5 mins followed by NADPH addition measured for 10 to 480 mins by LC-MS/MS analysis; format: ADME, cell-free; details: time 15-485 min
Mus musculus [18] = test: Anti-colitis activity in ICR mouse model assessed as decrease in DSS-induced I-kappaB-alpha degradation in colon tissue at 60 mg/kg, IG treated for 8 days consecutively by Western blot analysis; format: functional, organism-based; details: time 8.0 day
Mus musculus [19] = test: Anti-colitis activity in ICR mouse model assessed as […] DSS-induced colon length at 15 to 60 mg/kg, IG treated for 8 days consecutively; format: functional, organism-based; details: dose 15-60 mg/kg, time 8.0 day
Mus musculus [20] = test: Anti-colitis activity in ICR mouse model assessed as decrease in DSS-induced P65 phosphorylation in colon tissue at 60 mg/kg, IG treated for 8 days consecutively in presence of DADA by Western blot analysis; format: functional, organism-based; details: time 8.0 day
[21] = Volume of distribution in colon of ICR mouse at 15 mg/kg, IG measured for 12 hrs by LC-MS/MS analysis; format: ADME, organism-based; details: in vivo, po
[22] = AUC (0 to t) in colon of ICR mouse at 15 mg/kg, IG measured for 12 hrs by LC-MS/MS analysis; format: ADME, organism-based; details: po
THP-1 [23] = test: Anti-inflammatory activity in human THP-1 cells assessed as decrease in LPS-induced phosphorylated I-kappaB-alpha level pretreated for 1 hr followed by LPS treatment for 6 hrs by Western blot analysis; format: functional, cell-based; details: dose 1-10 µM, time 7.0 hrs
Mus musculus [24] = test: Anti-colitis activity in ICR mouse model assessed as decrease in DSS-induced pyruvate carboxylase level at 60 mg/kg, IG treated for 8 days consecutively in presence of DADA; format: functional, organism-based; details: time 8.0 day
Mus musculus [25] = test: Anti-colitis activity in ICR mouse model assessed as reversal of DSS-induced spleen weight at 15 to 60 mg/kg, IG treated for 9 days consecutively; format: functional, organism-based; details: dose 15-60 mg/kg, time 9.0 day
THP-1 [26] = test: Anti-inflammatory activity in human THP-1 cells assessed as decrease in LPS-induced NLRP3 level at 1 to 10 uM pretreated for 1 hr followed by LPS/ATP treatment for 6 hrs by Western blot analysis; format: functional, cell-based; details: dose 1-10 µM, time 7.0 hrs
[27] = Tmax in ICR mouse at 15 mg/kg, IG measured for 12 hrs by LC-MS/MS analysis; format: ADME, organism-based; details: in vivo, po
Mus musculus [28] = test: Anti-colitis activity in ICR mouse model assessed as decrease in DSS-induced P65 phosphorylation in colon tissue at 60 mg/kg, IG treated for 8 days consecutively by Western blot analysis; format: functional, organism-based; details: time 8.0 day
[29] = Toxicity in ICR mouse assessed as change in kidney index at 300 mg/kg, IG measured for 9 days; format: organism-based; details: in vivo, po, 216 h, time 9 day
[30] = Tmax in Sprague-Dawley rat administered as hydroxypropyl-beta-cyclodextrin at 20 mg/kg, IG measured for 12 hrs by LC-MS/MS analysis; format: ADME, organism-based; details: in vivo, po
[31] = Toxicity in ICR mouse assessed as change in colon index at 300 mg/kg, IG measured for 9 days; format: organism-based; details: in vivo, po, 216 h, time 9 day
[32] = MRT (0 to t) in colon of ICR mouse at 15 mg/kg, IG measured for 12 hrs by LC-MS/MS analysis; format: ADME, organism-based; details: po
[33] = Half life in Sprague-Dawley rat administered as hydroxypropyl-beta-cyclodextrin at 20 mg/kg, IG measured for 12 hrs by LC-MS/MS analysis; format: ADME, organism-based; details: in vivo, po
THP-1 [34] = test: Anti-inflammatory activity in human THP-1 cells assessed as decrease in LPS-induced phosphorylated p65 level pretreated for 1 hr followed by LPS treatment for 6 hrs by Western blot analysis; format: functional, cell-based; details: dose 1-10 µM, time 7.0 hrs
Mus musculus [35] = test: Anti-colitis activity in ICR mouse model assessed as decrease in DSS-induced epithelial cell injury in colon tissue at 15 to 60 mg/kg, IG treated for 8 days consecutively by H and E staining based analysis; format: functional, organism-based; details: dose 15-60 mg/kg, time 8.0 day

- MRT last at 12 h [5]: 186 min
- t1/2 [7]: 6.46 min
- Cmax [8]: 57.5 ng/mL
- CLH [9]: 6.46 µL/min/mg
- AUCt [14]: 108.09 ng·h/mL
- half-life at 10 µM [17]: 1.14 min
- Vd [21]: 97.34 L/kg
- AUC(0-t) at 12 h [22]: 3210 ng·h/mL
- Tmax [27]: 57.6 min
- Tmax [30]: 30 min
- MRT last at 12 h [32]: 199 min
- t1/2 [33]: 82.8 min
Compound: C=C(C)[C@@H]1CC[C@]2(C(=O)NCCCCCC(=O)OC)CC[C@]3(C)[C@H](CC[C@@H]4[C@@]5(C)CC[C@H](O[C@@H]6OC[C@H](O)[C@H](O)[C@H]6O[C@@H]6O[C@@H](C)[C@H](O)[C@@H](O)[C@H]6O)[C@@](C)(CO)[C@@H]5CC[C@]43C)[C@@H]12
- Activity (THP-1 [1]): Active
- Activity (THP-1 [2]): Dose-Dependent Effect
- Activity (Mus musculus [3]): Dose-Dependent Effect
- Activity (Mus musculus [4]): inactive
- Activity (Mus musculus [6]): Dose-Dependent Effect
- Activity (Mus musculus [10]): Active
- Activity (Mus musculus [11]): Active
- Activity (THP-1 [12]): Active
- Activity (THP-1 [13]): inactive
- Activity [15]: Non-Toxic
- Activity (Mus musculus [16]): Active
- Activity (Mus musculus [18]): Active
- Activity (Mus musculus [19]): Active
- Activity (Mus musculus [20]): inactive
- Activity (THP-1 [23]): Dose-Dependent Effect
- Activity (Mus musculus [24]): inactive
- Activity (Mus musculus [25]): Active
- Activity (THP-1 [26]): Active
- Activity (Mus musculus [28]): Active
- Activity [29]: Non-Toxic
- Activity [31]: Non-Toxic
- Activity (THP-1 [34]): Dose-Dependent Effect
- Activity (Mus musculus [35]): Active
